Counter-ions that a name gives are not always drawn. Like-named read-outs stand apart in the source and are kept apart here.
Assays:
[1] = tested on: Jurkat HIV-luciferase clones; assay: Jurkat latency reversal assay; type: cell-based; conditions: Homo sapiens, Jurkat
Outline: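 Three pooled Jurkat HIV-luciferase clones (C16, I15, N6; 5,000 cells/well, maintained with 500 nM EFV) exposed to 3-fold, 14-point titrations (10 μM to 2.1 pM, 0.5% DMSO) in duplicate for 48 h at 37 °C. Luciferase luminescence read; EC50 and maximal % activation versus vehicle from four-parameter logistic fit.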

p100/p52 [2] = assay: p100/p52 Western blot (WB) assay; type: cell-based, human; conditions: Homo sapiens
Description: Cell cultures were set up to evaluate several SMACm compounds. Frozen PBMC cells from healthy donors were thawed and plated in 2 ml deepwell plates at 2×10^6 cells/ml. Serial dilutions of each compound was carried out as a 7 fold 1:6 dilution with the starting final dose of 1000 nM. Cells were then combined with compound and place at 37° for 24 hrs. The following day cells were pelleted and placed at −80 until lysis.
In preparation for cell lysis, the frozen cell pellets and an aliquot of NP40 Cell Lysis Buffer (Invitrogen, Part #FNN0021), as well as an aliquot of 10× Protease Inhibitor Cocktail (Sigma, Part #P-2714) are thawed on ice. Once thawed, the complete lysis buffer is prepared by adding 10% final volume PI cocktail to the NP40 buffer and then adding in sufficient volume of 0.1 M PMSF (Sigma, Part #93482) and 1 M DTT (Sigma, Part #43816) to create a final concentration of 1 mM each in the complete lysis buffer. Cell lysis is then carried out by resuspending each cell pellet in 30 μL per 10^6 cells then incubating on ice for 30 minutes with vigorous vortexing every 10 minutes. The lysed cells are then centrifuged at 13K RPM for 10 minutes at 4° C. in a refrigerated microcentrifuge. The supernatants (lysates) are then transferred into new microcentrifuge tubes and either stored at −80° or utilized immediately for protein concentration and Western blot analysis.
Protein concentration for each lysate is determined using a detergent compatible Bradford assay (Pierce, Part #23246) following the manufacturer's microplate instructions.
Capillary Western analysis were performed using the ProteinSimple Jess System. A total of 1 ug of cell lysate was prepared according to the provided protocol supplied by ProteinSimple. The primary antibody for p100/p52 (Cell, Signaling #3017) is diluted 1:10 for use in the Jess system. The 12-230 kDa Jess Seperation Module capillary cartridges Separation Module (SM-W004) is used in conjunction with the Anti-Rabbit Secondary NIR conjugate (043-819). The Separation module includes prefilled plates that the samples, primary and secondary antibodies, as well as protein normalization reagent and diluents are loaded onto to perform separation and detection. Once the assay has run, the data is then analyzed utilizing the Compass software provided by ProteinSimple.
Alternatively to capillary electrophoresis, traditional immunoblot assays were carried out, 10 μg of cell lysate was loaded per well into 4-20% Tris-Glycine SDS-PAGE gels. Protein from the SDS-PAGE gels were transferred to Turbo Midi PVDF Transfer Packs (BioRad) using the “Mixed MW” protocol for one Midi Format Gel (constant 2.5 A up to 25V, for 7 minutes) of the Trans-Blot Turbo Transfer System (Bio-Rad) with premade Trans-Blot per the manufacturer's instructions. After transfer, PVDF membranes were blocked in 5% bovine serum albumin (BSA) in 1×TBS (BioRad) with 0.1% Tween-20 for 1 hour at room temperature with gentle rocking. Primary antibodies were added and incubated overnight at 4° C. (anti-p100/p52, Cell Signaling Technology #3017, 1:1000; anti-Actin-HRP conjugate, Abcam #49900, 1:30,000). Following primary staining, the membrane washed three times with 1× Tris Buffered Saline (TBS)+0.1% TWEEN® 20 for 10 minutes each wash. After washing, the membrane was incubated in 5% BSA in 1×TBS+0.1% TWEEN® 20 with the appropriate secondary antibody for 2 hours at room temperature. Following secondary stain the membrane was washed twice for 10 minutes with 1×TBS+0.1% TWEEN® 20 followed by a 10-minute wash with 1×TBS. The membrane was then patted dry with filter paper and an image was captured of the undeveloped membrane on the ChemiDoc MP Imaging System using Image Lab software (BioRad). Sufficient ECL reagent (GE Healthcare) was used to cover the membrane and a series of images were taken starting with 0.001 second and doubling to tripling the exposure time until the luminescence from the developed membrane saturated the image. […]

NFKB2 = assay: NFkB2 gene induction; type: cell-based, human; conditions: Homo sapiens, CD4+ T, 24 h, read-out: NFkB2 gene induction EC50 (nM)
Description: 5×10^5 normal donor CD4 T cells were treated for 24h with serial dilutions of compounds starting at 1.0 μM at 6 fold, 7 places. Total RNA was isolated using the RNEasy Mini kit (Qiagen) per the manufacturer's instructions. The following TaqMan primer probe sets were sourced from Applied Biosystems: Hs00174517_m1 (NFKB2) and Hs02800695 (HPRT1). TaqMan-based real-time PCR (Fast Virus 1-Step Master Mix, Applied Biosystems) was used to amplify host genes of interest. Gene expression was normalized to HPRT1 and comparative threshold cycle (CT) method (ΔΔCT) was used for relative fold change of gene expression as compared to untreated cells. The data was analyzed by QuantStudio3 Real-Time PCR System.

[3] = tested on: cell-associated HIV RNA (HIV gag RNA) in CD4+ T cells; conditions: background statement, primary cells / resting CD4+ T cells; cited from earlier work
[4] = tested on: Jurkat HIV-luciferase clones; conditions: background statement; cited from earlier work
p100/p52 [5] = conditions: background statement, primary cells; cited from earlier work
[6] = Table 4 summary, read-out: Jurkat EC50
[7] = PBMC, 24 h, read-out: p100/p52 Western Blot (WB) EC50 (nM)

Row | Structure (SMILES) | EC50 ([1]; 48 h, Table 4 summary, read-out: Jurkat EC50) [nM] | EC50 (p100/p52 [2]; PBMC cells from healthy donors, 24 hrs, read-out: p100/p52 Western Blot (WB) EC50) [nM] | EC50 (NFKB2) [nM] | EC50 ([1]; 48 h) [nM] | EC50 [1, 6] [nM] | EC50 (p100/p52 [2]; [7]) [nM] | HIV caRNA induction [3] | potency in cell line assays / Jurkat (HIV latency reversal) [4] | p100-p52 conversion (p100/p52 [5])
1 | CN[C@@H](C)C(=O)N[C@H]1CCO[C@H]2CC(C)(C)C(C(=O)Nc3ccccc3SSc3ccccc3NC(=O)C3N4C(=O)[C@@H](NC(=O)[C@H](C)NC)CCO[C@H]4CC3(C)C)N2C1=O (stereo partly shown) [Formula F, reference compound] | ~1000 | > 1000 |  |  |  |  |  |  | 
2 | CN[C@@H](C)C(=O)N[C@H]1CCS[C@H]2CC(C)(C)[C@@H](C(=O)N[C@H](COCc3ccc(COC[C@@H](NC(=O)[C@H]4N5C(=O)[C@@H](NC(=O)[C@H](C)NC)CCS[C@H]5CC4(C)C)c4ccccc4)cc3)c3ccccc3)N2C1=O [compound 42, (4S,4′S,7S,7′S,9aS,9a′S)-N,N′-((1S,1′S)-((1,4-phenylenebis(methylene))bis(oxy))bis(1-phenylethane-2,1-diyl))bis(8,8-dimethyl-4-((S)-2-(methylamino)propanamido)-5-oxooctahydropyrrolo[2,1-b][1,3]thiazepine-7-carboxamide) dihydrochloride] |  |  | 3.6 | 6.8 | 6.8 | 3.1 |  |  | 
3 | CN[C@@H](C)C(=O)N[C@H]1CCS[C@H]2CC(C)(C)[C@@H](C(=O)N[C@H]3c4ccccc4C[C@H]3OCC#CC#CCO[C@@H]3Cc4ccccc4[C@@H]3NC(=O)[C@H]3N4C(=O)[C@@H](NC(=O)[C@H](C)NC)CCS[C@H]4CC3(C)C)N2C1=O [compound 13, (4S,4′S,7S,7′S,9aS,9a′S)-N,N′-((1S,1′S,2R,2′R)-(hexa-2,4-diyne-1,6-diylbis(oxy))bis(2,3-dihydro-1H-indene-2,1-diyl))bis(8,8-dimethyl-4-((S)-2-(methylamino)propanamido)-5-oxooctahydropyrrolo[2,1-b][1,3]thiazepine-7-carboxamide) dihydrochloride] |  |  | 73 | 9.3 | 9.3 | 12.6 |  |  | 
4 | CC[C@H](NC(=O)[C@H](C)NC)C(=O)N1C[C@@H](O)C[C@H]1Cc1c(-c2[nH]c3cc(F)ccc3c2C[C@@H]2C[C@H](O)CN2C(=O)[C@H](CC)NC(=O)[C@H](C)NC)[nH]c2cc(F)ccc12 [Birinapant TL32711] |  |  |  |  |  |  | not potent | not potent | not potent
5 | CN[C@@H](C)C(=O)N[C@H]1CCS[C@H]2CC(C)(C)[C@@H](C(=O)N[C@H]3c4ccccc4C[C@H]3OCCCCCCO[C@@H]3Cc4ccccc4[C@@H]3NC(=O)[C@H]3N4C(=O)[C@@H](NC(=O)[C@H](C)NC)CCS[C@H]4CC3(C)C)N2C1=O [compound 20, (4S,4′S,7S,7′S,9aS,9a′S)-N,N′-((1S,1′S,2R,2′R)-(hexane-1,6-diylbis(oxy))bis(2,3-dihydro-1H-indene-2,1-diyl))bis(8,8-dimethyl-4-((S)-2-(methylamino)propanamido)-5-oxooctahydropyrrolo[2,1-b][1,3]thiazepine-7-carboxamide)] |  |  | 75 | 11.9 | 11.9 | 3.1 |  |  | 
6 | CN[C@@H](C)C(=O)N[C@H]1CCS[C@H]2CC(C)(C)[C@@H](C(=O)N[C@H](COCCCCCCOC[C@@H](NC(=O)[C@H]3N4C(=O)[C@@H](NC(=O)[C@H](C)NC)CCS[C@H]4CC3(C)C)c3ccccc3)c3ccccc3)N2C1=O [compound 40, (4S,4′S,7S,7′S,9aS,9a′S)-N,N′-((1S,1′S)-(hexane-1,6-diylbis(oxy))bis(1-phenylethane-2,1-diyl))bis(8,8-dimethyl-4-((S)-2-(methylamino)propanamido)-5-oxooctahydropyrrolo[2,1-b][1,3]thiazepine-7-carboxamide) dihydrochloride] |  |  | 11 | 6.1 | 6.1 | 1 |  |  | 
7 | CN[C@@H](C)C(=O)N[C@H]1CCS[C@H]2CC(C)(C)[C@@H](C(=O)N[C@H](COCC#CC#CCOC[C@@H](NC(=O)[C@H]3N4C(=O)[C@@H](NC(=O)[C@H](C)NC)CCS[C@H]4CC3(C)C)c3ccccc3)c3ccccc3)N2C1=O [compound 33, (4S,4′S,7S,7′S,9aS,9a′S)-N,N′-((1S,1′S)-(hexa-2,4-diyne-1,6-diylbis(oxy))bis(1-phenylethane-2,1-diyl))bis(8,8-dimethyl-4-((S)-2-(methylamino)propanamido)-5-oxooctahydropyrrolo[2,1-b][1,3]thiazepine-7-carboxamide) dihydrochloride] |  |  | 46 | 5.5 | 5.5 | 158 |  |  | 
